Experimental data published in US10407430B2, “Janus kinase 1 selective inhibitor and pharmaceutical use thereof” (YANG JI CHEMICAL CO., LTD., priority 2015, dated 2019).
Where a name gives a salt, the structure may show the parent alone. Read-outs that look alike come from different tables or passages of the source. Values belong to the compound of their own block, whether it stands above or below them.

Legend:
Human JAK1 = target: T1, Human JAK1 (Homo sapiens, UniProt P23458); test: In-vitro kinase inhibition test, JAK1; assay type: biochemical; details: for inhibition at 1 µM: compound at 1 uM, read-out: JAK1 kinase-phosphorylation inhibitory level (% inhibition); for JAK1/JAK2: ratio of % inhibition of JAK1 to JAK2 at 1 uM
T1 construct: purchased Millipore, Germany

Human JAK2 = target: T2, Human JAK2 (Homo sapiens, UniProt O60674); test: In-vitro kinase inhibition test, JAK2; assay type: biochemical; details: compound at 1 uM; read-out: JAK2 kinase-phosphorylation inhibitory level (% inhibition)
T2 construct: purchased Millipore, Germany
Experimental: (§1) Human-derived JAK1, JAK2, JAK3 and TYK2 (Millipore, Germany) were used as kinases. Each kinase was diluted with an appropriate buffer as described below, and then mixed with reaction reagents.
(§2) 3-morpholinopropane-1-sulfonic acid (MOPS) and EDTA were dissolved in deionized water at a concentration of 20 mM and 1 mM, respectively, and then 100 μL of β-mercaptoethanol, 10 μL of Brij-35™, 5 mL of glycerol, and 100 mg of bovine serum albumin (BSA), each per 100 mL of the solution, were added to the solution, thereby preparing a dilution buffer for JAK2, JAK3, and TYK2.
(§3) Each compound was dissolved in a 100%-DMSO solution at a concentration of about 50 μM. This prepared solution was reacted with reaction reagents in each well of a 96-well plate until a final concentration of the compound reached 1 μM. A detailed experimental method for each kinase is as follows.
(§4) After reaction for about 40 minutes at room temperature, the reaction was stopped by adding 5 uL of a 3% (v/v) phosphoric acid solution.
(§5) The inhibitory levels (% inhibition) represent a percentage of reduction in phosphorylation activity in each test group with respect to the phosphorylation activity of a corresponding kinase in a negative control group lacking any of the compounds synthesized in the examples. % inhibition=[(Scintillation value of Test compound non-treatment group−Scintillation value of Test compound treatment group)/(Scintillation value of Test compound non-treatment group)]×100

Human JAK3 = target: T3, Human JAK3 (Homo sapiens, UniProt P52333); test: In-vitro kinase inhibition test, JAK3; assay type: biochemical; details: compound at 1 uM; read-out: JAK3 kinase-phosphorylation inhibitory level (% inhibition)
T3 construct: purchased Millipore, Germany
T3 sequence (P52333 1-1124): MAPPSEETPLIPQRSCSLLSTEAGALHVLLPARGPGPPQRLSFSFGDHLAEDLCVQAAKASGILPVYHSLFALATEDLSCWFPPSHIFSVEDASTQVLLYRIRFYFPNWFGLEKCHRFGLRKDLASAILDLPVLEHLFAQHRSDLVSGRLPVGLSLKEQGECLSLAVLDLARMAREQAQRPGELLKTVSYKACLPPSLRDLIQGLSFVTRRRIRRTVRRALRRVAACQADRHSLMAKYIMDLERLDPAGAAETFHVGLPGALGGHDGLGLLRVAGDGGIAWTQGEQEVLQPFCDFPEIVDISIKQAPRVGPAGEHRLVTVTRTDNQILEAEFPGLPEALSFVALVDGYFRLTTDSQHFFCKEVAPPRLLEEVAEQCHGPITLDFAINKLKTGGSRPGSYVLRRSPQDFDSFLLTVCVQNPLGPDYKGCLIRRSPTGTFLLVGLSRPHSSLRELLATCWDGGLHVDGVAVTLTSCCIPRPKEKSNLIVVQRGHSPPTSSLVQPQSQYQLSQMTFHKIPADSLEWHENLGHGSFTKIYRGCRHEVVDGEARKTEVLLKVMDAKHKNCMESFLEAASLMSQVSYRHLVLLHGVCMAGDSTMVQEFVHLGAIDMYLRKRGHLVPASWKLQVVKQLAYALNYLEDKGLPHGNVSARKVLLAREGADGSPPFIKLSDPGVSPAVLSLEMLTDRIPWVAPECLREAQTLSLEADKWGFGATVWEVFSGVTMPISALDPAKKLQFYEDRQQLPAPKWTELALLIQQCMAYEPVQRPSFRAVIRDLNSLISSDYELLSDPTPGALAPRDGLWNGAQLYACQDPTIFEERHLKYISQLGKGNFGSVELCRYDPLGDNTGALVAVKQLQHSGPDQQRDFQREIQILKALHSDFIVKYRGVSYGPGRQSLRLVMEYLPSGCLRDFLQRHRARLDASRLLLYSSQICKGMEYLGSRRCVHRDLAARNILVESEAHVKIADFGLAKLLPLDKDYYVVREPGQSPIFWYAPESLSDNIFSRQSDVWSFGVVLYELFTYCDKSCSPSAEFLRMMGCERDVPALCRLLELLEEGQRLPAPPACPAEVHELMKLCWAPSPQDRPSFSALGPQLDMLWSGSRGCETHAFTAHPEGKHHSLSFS

Human TYK2 = target: T4, Human TYK2 (Homo sapiens, UniProt P29597); test: In-vitro kinase inhibition test, TYK2; assay type: biochemical; details: read-out: TYK2 kinase-phosphorylation inhibitory level (% inhibition)
T4 construct: purchased Millipore, Germany
Experimental: as §1, §2, §3, §4, §5

[1] = Pharmacokinetic test, oral or intravenous administration; assay type: in vivo; details: mouse, blood, 20 mg/kg, mice
Experimental: A dose of the compound was about 20 mg/kg, which was orally or intraveneously administered one time, followed by blood collection from the jugular veins of three mice at each of blood sampling intervals, i.e., 0, 0.25 (15 min), 0.5 (30 min), 1, 2, 4, 6, 12, and 24 hours from the administration, and measuring a drug concentration.

[2] = comparative drug (EMA), cited from earlier work

T2 sequence (O60674 whole entry): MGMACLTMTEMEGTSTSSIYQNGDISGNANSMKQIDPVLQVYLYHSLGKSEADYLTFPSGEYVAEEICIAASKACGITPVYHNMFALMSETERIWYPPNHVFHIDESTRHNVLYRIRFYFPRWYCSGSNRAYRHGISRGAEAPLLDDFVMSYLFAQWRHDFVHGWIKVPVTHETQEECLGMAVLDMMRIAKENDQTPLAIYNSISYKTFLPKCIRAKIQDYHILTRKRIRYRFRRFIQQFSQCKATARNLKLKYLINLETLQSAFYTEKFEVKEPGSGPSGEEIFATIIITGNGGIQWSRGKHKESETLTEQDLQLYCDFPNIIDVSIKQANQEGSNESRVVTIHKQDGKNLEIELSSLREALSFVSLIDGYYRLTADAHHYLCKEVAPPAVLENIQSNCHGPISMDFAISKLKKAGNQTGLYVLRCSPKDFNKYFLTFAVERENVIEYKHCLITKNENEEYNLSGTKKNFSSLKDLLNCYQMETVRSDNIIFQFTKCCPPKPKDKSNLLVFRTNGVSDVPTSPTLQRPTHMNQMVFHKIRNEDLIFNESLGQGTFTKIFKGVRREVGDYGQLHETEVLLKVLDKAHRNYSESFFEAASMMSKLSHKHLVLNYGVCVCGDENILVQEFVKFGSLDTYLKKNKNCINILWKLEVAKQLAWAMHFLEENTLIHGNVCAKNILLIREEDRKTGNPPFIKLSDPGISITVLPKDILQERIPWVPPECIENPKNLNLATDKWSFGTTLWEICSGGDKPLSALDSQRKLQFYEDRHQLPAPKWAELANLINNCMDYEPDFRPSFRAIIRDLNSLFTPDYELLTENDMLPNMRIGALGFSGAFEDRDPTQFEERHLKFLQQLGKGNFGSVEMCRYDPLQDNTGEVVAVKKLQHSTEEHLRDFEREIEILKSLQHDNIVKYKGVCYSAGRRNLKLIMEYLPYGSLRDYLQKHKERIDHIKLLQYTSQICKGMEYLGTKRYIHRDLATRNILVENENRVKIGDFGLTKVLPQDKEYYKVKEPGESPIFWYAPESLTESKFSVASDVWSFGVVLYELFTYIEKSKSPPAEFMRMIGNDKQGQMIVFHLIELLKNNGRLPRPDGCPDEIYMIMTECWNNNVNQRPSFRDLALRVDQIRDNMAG
T1 sequence (P23458 whole entry): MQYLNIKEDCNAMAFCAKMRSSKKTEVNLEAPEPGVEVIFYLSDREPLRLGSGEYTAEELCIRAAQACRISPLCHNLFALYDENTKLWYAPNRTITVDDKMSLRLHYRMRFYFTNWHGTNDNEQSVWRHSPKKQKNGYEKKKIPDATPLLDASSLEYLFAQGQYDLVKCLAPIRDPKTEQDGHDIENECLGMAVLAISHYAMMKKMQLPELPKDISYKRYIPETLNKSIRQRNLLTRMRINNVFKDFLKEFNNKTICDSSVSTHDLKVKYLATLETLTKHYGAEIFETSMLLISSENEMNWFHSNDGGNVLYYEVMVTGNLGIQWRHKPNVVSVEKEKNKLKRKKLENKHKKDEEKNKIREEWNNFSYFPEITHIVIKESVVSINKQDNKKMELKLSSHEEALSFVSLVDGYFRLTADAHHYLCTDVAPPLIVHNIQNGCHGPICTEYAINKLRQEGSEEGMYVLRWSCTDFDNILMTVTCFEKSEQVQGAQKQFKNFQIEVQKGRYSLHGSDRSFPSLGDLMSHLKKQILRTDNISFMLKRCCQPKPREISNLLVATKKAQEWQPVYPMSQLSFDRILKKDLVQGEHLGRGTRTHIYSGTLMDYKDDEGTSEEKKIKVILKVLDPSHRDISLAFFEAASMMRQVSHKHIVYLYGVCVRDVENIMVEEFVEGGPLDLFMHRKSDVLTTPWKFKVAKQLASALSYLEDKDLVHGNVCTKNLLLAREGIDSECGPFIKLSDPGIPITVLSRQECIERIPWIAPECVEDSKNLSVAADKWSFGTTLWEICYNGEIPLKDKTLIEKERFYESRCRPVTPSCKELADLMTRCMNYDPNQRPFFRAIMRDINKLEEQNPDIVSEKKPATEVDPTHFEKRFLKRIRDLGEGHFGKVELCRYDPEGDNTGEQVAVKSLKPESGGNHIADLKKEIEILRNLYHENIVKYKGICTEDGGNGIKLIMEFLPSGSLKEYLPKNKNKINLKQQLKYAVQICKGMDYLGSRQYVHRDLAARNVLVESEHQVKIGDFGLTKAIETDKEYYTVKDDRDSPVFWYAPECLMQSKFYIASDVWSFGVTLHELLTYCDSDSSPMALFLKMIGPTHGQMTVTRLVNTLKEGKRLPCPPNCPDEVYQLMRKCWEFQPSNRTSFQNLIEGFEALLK
T4 sequence (P29597 whole entry): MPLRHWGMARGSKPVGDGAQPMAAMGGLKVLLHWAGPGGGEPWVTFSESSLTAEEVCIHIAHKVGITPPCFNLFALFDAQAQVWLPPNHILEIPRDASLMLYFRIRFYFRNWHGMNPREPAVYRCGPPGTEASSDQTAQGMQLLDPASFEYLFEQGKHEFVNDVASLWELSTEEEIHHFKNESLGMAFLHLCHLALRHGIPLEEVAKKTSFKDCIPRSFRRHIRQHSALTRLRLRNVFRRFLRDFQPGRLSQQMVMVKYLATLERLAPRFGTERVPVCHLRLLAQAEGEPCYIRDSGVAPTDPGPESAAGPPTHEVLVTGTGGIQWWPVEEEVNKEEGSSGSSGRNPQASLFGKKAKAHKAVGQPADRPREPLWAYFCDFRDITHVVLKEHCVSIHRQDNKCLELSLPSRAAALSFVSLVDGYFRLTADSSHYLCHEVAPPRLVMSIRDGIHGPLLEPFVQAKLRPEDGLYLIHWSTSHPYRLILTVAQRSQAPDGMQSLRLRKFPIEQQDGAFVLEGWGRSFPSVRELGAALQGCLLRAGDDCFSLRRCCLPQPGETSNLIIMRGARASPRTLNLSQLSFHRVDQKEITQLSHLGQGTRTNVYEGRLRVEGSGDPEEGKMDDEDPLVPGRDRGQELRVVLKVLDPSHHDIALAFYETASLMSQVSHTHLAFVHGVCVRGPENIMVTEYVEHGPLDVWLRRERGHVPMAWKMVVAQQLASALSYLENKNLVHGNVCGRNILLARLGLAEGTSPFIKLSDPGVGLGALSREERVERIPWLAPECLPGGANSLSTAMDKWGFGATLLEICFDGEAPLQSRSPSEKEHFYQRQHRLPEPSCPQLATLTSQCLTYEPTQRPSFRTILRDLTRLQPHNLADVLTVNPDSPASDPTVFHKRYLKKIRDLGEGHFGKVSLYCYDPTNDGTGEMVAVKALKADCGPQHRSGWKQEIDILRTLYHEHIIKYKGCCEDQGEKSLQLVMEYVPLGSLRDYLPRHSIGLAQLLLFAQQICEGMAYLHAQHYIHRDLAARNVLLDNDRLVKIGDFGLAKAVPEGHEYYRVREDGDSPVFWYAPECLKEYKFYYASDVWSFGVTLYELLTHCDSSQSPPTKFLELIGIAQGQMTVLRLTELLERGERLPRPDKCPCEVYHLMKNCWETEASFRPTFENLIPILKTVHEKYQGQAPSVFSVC

SMILES: C[C@@H]1CCN(S(=O)(=O)c2cccc(C#N)c2)C[C@@H]1N(C)c1ncnc2[nH]ccc12 [Example 42, 3-(((3R,4R)-4-methyl-3-(methyl(7H-pyrrolo[2,3-d]pyrimidine-4-yl)amino)piperidine-1-yl)sulfonyl)benzonitrile]
inhibition at 1 µM (Human JAK1): 95%
JAK1/JAK2 (Human JAK1): 1.20
inhibition at 1 µM (Human JAK2): 79%
inhibition at 1 µM (Human JAK3): 89%
inhibition at 1 µM (Human TYK2; compound at 1 uM): 86%

SMILES: CN(c1ncnc2[nH]ccc12)[C@@H]1CN(C(=O)CC#N)CC1(C)C [Example 44, (S)-3-(3,3-dimethyl-4-(methyl(7H-pyrrolo[2,3-d]pyrimidine-4-yl)amino)pyrrolidine-1-yl)-3-oxopropanenitrile]
inhibition at 1 µM (Human JAK1): 26%
JAK1/JAK2 (Human JAK1): ∞
inhibition at 1 µM (Human JAK2): -8%
inhibition at 1 µM (Human JAK3): 1%
inhibition at 1 µM (Human TYK2; compound at 1 uM): -1%

SMILES: N#CCC(=O)N1CCC(Oc2ncnc3[nH]ccc23)CC1 [Example 45, 3-(4-((7H-pyrrolo[2,3-d]pyrimidine-4-yl)oxy)piperidine-1-yl)-3-oxopropanenitrile]
inhibition at 1 µM (Human JAK1): 35%
JAK1/JAK2 (Human JAK1): 7.00
inhibition at 1 µM (Human JAK2): 5%
inhibition at 1 µM (Human JAK3): 14%
inhibition at 1 µM (Human TYK2; compound at 1 uM): 10%

SMILES: N#CCC(=O)N1C[C@H]2CCCN(c3ncnc4[nH]ccc34)[C@H]2C1 [Example 49, 3-((4aR,7aR)-1-(7H-pyrrolo[2,3-d]pyrimidine-4-yl)octahydro-6H-pyrrolo[3,4-b]pyridine-6-yl)-3-oxopropanenitrile]
inhibition at 1 µM (Human JAK1): 54%
JAK1/JAK2 (Human JAK1): ∞
inhibition at 1 µM (Human JAK2): -7%
inhibition at 1 µM (Human JAK3): 1%
inhibition at 1 µM (Human TYK2; compound at 1 uM): 21%

SMILES: CN(c1ncnc2[nH]ccc12)[C@@H]1CCN(C(=O)CC#N)C1.Cl [Example 51, (R)-3-(3-(methyl(7H-pyrrolo[2,3-d]pyrimidine-4-yl)amino)pyrrolidine-1-yl)-3-oxopropanenitrile hydrochloride]
AUC(0-t) ([1]; intravenous injection): 18900 ng·h/mL
Cmax ([1]; intravenous injection): 15500 ng/mL
half-life ([1]; intravenous injection): 1.97 h
AUC(0-t) ([1]; oral administration): 13100 ng·h/mL
Cmax ([1]; oral administration): 4530 ng/mL
Tmax ([1]; oral administration): 0.5 h
bioavailability ([1]; oral administration): 69.1%
half-life ([1]; oral administration): 2.78 h

SMILES: CC1CCN(C(=O)CC#N)CC1N(C)c1ncnc2[nH]ccc12 (stereo not shown) [tofacitinib citrate, 3-{4-methyl-3-[methyl-(7H-pyrrolo[2,3-d]pyrimidine-4-yl)-amino]-piperidine-1-yl}-3-oxo-propionitrile]
inhibition at 1 µM (Human TYK2): 100%
AUC0→t ([2]; intravenous injection, 5 mg/kg): 3180 ng·h/mL
t1/2 ([2]; intravenous injection, 5 mg/kg): 2.8 h
AUC0→t ([2]; oral administration, 10 mg/kg): 2750 ng·h/mL
Cmax ([2]; oral administration, 10 mg/kg): 2400 ng/mL
bioavailability ([2]; oral administration, 10 mg/kg): 43.3%
t1/2 ([2]; oral administration, 10 mg/kg): 2.0 h

Further lines, results first:

inhibition at 1 µM (Human JAK1): 86%
JAK1/JAK2 (Human JAK1): 4.53
inhibition at 1 µM (Human JAK2): 19%
inhibition at 1 µM (Human JAK3): 36%
inhibition at 1 µM (Human TYK2; compound at 1 uM): 38%
SMILES: CN(c1ncnc2[nH]ccc12)[C@H]1CN(C(=O)CC#N)CC1(C)C [Example 43, (R)-3-(3,3-dimethyl-4-(methyl(7H-pyrrolo[2,3-d]pyrimidine-4-yl)amino)pyrrolidine-1-yl)-3-oxopropanenitrile]

inhibition at 1 µM (Human JAK1): 30%
JAK1/JAK2 (Human JAK1): 3.00
inhibition at 1 µM (Human JAK2): 10%
inhibition at 1 µM (Human JAK3): 16%
inhibition at 1 µM (Human TYK2; compound at 1 uM): 20%
SMILES: N#CCC(=O)N1CCCC(COc2ncnc3[nH]ccc23)C1 (stereo not shown) [Example 47, 3-(3-(((7H-pyrrolo[2,3-d]pyrimidine-4-yl)oxy)methyl)piperidine-1-yl)-3-oxopropanenitrile]

inhibition at 1 µM (Human JAK1): 25%
JAK1/JAK2 (Human JAK1): 1.47
inhibition at 1 µM (Human JAK2): 17%
inhibition at 1 µM (Human JAK3): 19%
inhibition at 1 µM (Human TYK2; compound at 1 uM): 7%
SMILES: N#Cc1cccc(S(=O)(=O)N2CCCC(COc3ncnc4[nH]ccc34)C2)c1 (stereo not shown) [Example 48, 3-((3-(((7H-pyrrolo[2,3-d]pyrimidine-4-yl)oxy)methyl)piperidine-1-yl)sulfonyl)benzonitrile]

inhibition at 1 µM (Human JAK1): 14%
JAK1/JAK2 (Human JAK1): ∞
inhibition at 1 µM (Human JAK2): -10%
inhibition at 1 µM (Human JAK3): 1%
inhibition at 1 µM (Human TYK2; compound at 1 uM): 6%
SMILES: N#CCC(=O)N1C[C@@H]2CCCN(c3ncnc4[nH]ccc34)[C@@H]2C1 [Example 50, 3-((4aS,7aS)-1-(7H-pyrrolo[2,3-d]pyrimidine-4-yl)octahydro-6H-pyrrolo[3,4-b]pyridine-6-yl)-3-oxopropanenitrile]
